# Key:
# [1] = tested on: S. aureus RN4220 pML100::rnpA-KD; assay: Cellular RnpA depletion hypersusceptibility growth curve; assay type: cell-based, Staphylococcus aureus; conditions: […] MIC JC2 or 0.5× MIC RNPA2000
# Method: 100 μL of each culture was transferred to a 96 well flat bottom plate in duplicate and growth monitored by OD600 reading every 30 min over 8 h at 37 °C. Hypersusceptibility growth curves were averaged from two biological replicates in technical duplicate.
# [2] = tested on: norA mRNA in S. aureus UAMS-1 cells; assay: Cellular norA mRNA turnover (qRT-PCR after rifampin arrest); assay type: cell-based, Staphylococcus aureus; conditions: 0.5× MIC for 30 min; 5 min post-transcriptional arrest; mock 99%
# Method: S. aureus mRNA half-life determinations were performed as previously described. […] Rifampin (Sigma-Aldrich) was added to the culture at a final concentration of 200 μg·mL^−1 to inhibit de novo transcript synthesis. Half of the culture was immediately removed and combined with an equal volume of ice cold acetone:ethanol (1:1 v/v). The remaining culture was returned to the shaking 37 °C incubator for an additional 5 min and then subsequently combined with an equal volume of ice cold acetone:ethanol (1:1 v/v) and stored at −80 °C until processing, as described below.
# For total bacterial RNA isolation, cell suspensions were thawed on ice, centrifuged at 3000 rpm for 10 min at 4 °C, the resulting cell pellets were resuspended in ice-cold TE buffer (10 mM Tris-HCl, pH 8.0, 1 mM EDTA), and transferred into a FastPrep bead beater tube containing 0.1 mm silica spheres (MP Biomedicals; Santa Ana, CA, USA). Mixtures were homogenized at 5 m·s^−1 for 20 s, rested on ice for 5 min, and then homogenized again at 4.5 m·s^−1 in a FastPrep-24 instrument. Cellular debris were collected by centrifugation at 13,000 rpm for 15 min at 4 °C, whereas bacterial RNA was isolated from the supernatant using Qiagen RNeasy Mini Kits and miRNeasy Mini Kits were used to isolate total bacterial RNA, following the manufacturer’s instructions. RNA quantity and quality were measured using a NanoDrop 2000 spectrophotometer (ThermoFisher Scientific). For qRT-PCR, 1 μg of total bacterial RNA was treated with 3 units of DNase I (Ambion; Carlsbad, CA, USA) for 1 h at 37 °C to remove any DNA contaminants. RNA cleanup was performed using the Qiagen RNeasy Mini Kit. Subsequently, the BioRad iScript cDNA Synthesis Kit (Hercules, CA, USA) was used to convert 200 ng of RNA into cDNA, which was amplified using the BioRad iQ SYBR Green Supermix per the manufacturer’s instructions and fluorescence was read on the Biorad CFX 96 Connect machine. Transcript levels were compared to the internal control 16S rRNA (ΔΔCt method), and plotted as a fold change compared to control. The following primer pairs were used in this study for qRT-PCR: norA forward—[…] and norA reverse-[…] CTAAG; -15 ptRNA^Tyr forward-[…] and tRNA^Tyr reverse-TGGTG […]; 16S rRNA forward-[…] and 16S rRNA reverse-[…].
smiles,measurement,setting,value
CC1CCCCN1C(=O)Nc1cc(Cl)cc(Cl)c1 (centres unmarked) [JC2],growth of RnpA-depleted cells (RnpA-KD) versus vector cells,[1],displayed a growth defect
same,norA mRNA degradation,[2],27%

# — paper PMC6627331, “Identification of Small Molecule Inhibitors of Staphylococcus aureus RnpA” (Antibiotics, 2019)
